Series [1] concerns the target T1, HDAC 6 (Homo sapiens, UniProt Q9UBN7).
T1 sequence (Q9UBN7 1-1215): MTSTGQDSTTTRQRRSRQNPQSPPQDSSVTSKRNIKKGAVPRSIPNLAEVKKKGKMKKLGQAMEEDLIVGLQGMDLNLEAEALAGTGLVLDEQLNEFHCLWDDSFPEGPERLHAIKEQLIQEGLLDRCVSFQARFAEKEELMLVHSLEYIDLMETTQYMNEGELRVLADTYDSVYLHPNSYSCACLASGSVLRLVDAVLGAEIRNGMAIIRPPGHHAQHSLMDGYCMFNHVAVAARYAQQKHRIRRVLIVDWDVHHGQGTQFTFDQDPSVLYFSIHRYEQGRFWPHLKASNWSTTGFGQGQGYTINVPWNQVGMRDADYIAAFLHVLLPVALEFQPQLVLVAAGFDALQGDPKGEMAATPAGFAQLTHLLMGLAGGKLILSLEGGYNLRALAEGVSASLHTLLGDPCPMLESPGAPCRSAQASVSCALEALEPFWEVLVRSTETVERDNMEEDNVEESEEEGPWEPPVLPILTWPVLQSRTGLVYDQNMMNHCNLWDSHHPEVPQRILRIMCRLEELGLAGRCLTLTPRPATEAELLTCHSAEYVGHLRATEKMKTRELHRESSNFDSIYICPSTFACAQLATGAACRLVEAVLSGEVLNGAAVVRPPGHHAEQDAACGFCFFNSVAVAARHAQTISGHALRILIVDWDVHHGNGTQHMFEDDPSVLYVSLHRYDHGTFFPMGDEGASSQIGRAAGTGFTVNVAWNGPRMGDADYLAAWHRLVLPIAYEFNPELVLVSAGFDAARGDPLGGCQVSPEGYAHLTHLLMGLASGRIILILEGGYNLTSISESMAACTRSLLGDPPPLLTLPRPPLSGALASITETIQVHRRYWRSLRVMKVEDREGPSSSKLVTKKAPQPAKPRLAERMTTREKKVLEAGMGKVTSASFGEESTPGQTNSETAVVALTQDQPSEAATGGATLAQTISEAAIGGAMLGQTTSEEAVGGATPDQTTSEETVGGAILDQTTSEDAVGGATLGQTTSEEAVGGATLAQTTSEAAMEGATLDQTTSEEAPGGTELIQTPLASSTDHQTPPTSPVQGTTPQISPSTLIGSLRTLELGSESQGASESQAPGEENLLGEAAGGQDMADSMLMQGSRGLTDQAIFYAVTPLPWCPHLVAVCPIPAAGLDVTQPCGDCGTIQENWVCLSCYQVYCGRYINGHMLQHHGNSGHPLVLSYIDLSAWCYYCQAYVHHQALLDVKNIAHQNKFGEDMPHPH
The series is described as follows: HDAC 6 fluorogenic peptide substrate assay with 3-hour enzyme/compound preincubation. Conditions: 3-hour preincubation of enzyme and compound; read-out: HDAC 6 inhibitory activity (IC50) 3-hour preincubation. Type of series: biochemical. How it is done:
(§1) The second assay is similar to the first assay described above, except that preincubation is carried out for about 3 hours after the enzyme is introduced. The test compound was suspended in, and titrated in DMSO. It was then spotted into a 384-well test plate. The enzyme, HDAC 1 or 6, was diluted in the same assay buffer as used in the previous assay and added to the pre-spotted compound. The enzyme/compound mix was incubated at room temperature for about 3 hours. The peptide substrate containing a fluorophore/quencher pair was diluted in the assay buffer and added to the compound/enzyme mix initiating the reaction. The reaction incubated at room temperature for 45 minutes. A concentrated developer solution was diluted in the assay buffer, and added to the reaction. The reaction was incubated at room temperature for about 15 minutes and relative fluorescence was read on an instrument reader.

For series [2], the target named is T1, HDAC 6. The series is described as follows: HDAC 6 fluorogenic peptide substrate assay without preincubation. The series is classed as biochemical. Conditions: no preincubation; read-out: HDAC 6 inhibitory activity (IC50) No preincubation. How it is done:
(§2) HDAC inhibitory activity of the compound of Example 1 was measured by two types of assays in which HDAC 1 and 6 were used as a target molecule. The first assay was carried out without preincubation after addition of the enzyme. The test compound was suspended in and titrated in DMSO. It was then spotted into a 384-well test plate. The enzyme, HDAC 1 or 6, was diluted in assay buffer containing 25 mM Tris-HCl (pH 8.0), 137 mM NaCl, 2.7 mM KCl, and 0.01% Tween-20 and added to the pre-spotted compound. The peptide substrate containing a fluorophore/quencher pair was diluted in the same assay buffer and added to the compound/enzyme mix initiating the reaction. The reaction incubated at room temperature for about 45 minutes. A concentrated developer solution was diluted in the assay buffer, and added to the reaction. The reaction was incubated at room temperature for about 15 minutes and relative fluorescence was read on an instrument reader.

Series [3] addresses T2, HDAC 1 (Homo sapiens, UniProt Q13547). The series is described as follows: HDAC 1 fluorogenic peptide substrate assay with 3-hour enzyme/compound preincubation. The series is classed as biochemical. Conditions: 3-hour preincubation of enzyme and compound; read-out: HDAC 1 inhibitory activity (IC50) 3-hour preincubation. As to the method:
as §1

In series [4] the target is T2, HDAC 1. The series is described as follows: HDAC 1 fluorogenic peptide substrate assay without preincubation. Type of series: biochemical. Conditions: no preincubation; read-out: HDAC 1 inhibitory activity (IC50) No preincubation. How it is done:
as §2

Molecules are shown by their SMILES.

T2 sequence (Q13547 whole entry, species assumed): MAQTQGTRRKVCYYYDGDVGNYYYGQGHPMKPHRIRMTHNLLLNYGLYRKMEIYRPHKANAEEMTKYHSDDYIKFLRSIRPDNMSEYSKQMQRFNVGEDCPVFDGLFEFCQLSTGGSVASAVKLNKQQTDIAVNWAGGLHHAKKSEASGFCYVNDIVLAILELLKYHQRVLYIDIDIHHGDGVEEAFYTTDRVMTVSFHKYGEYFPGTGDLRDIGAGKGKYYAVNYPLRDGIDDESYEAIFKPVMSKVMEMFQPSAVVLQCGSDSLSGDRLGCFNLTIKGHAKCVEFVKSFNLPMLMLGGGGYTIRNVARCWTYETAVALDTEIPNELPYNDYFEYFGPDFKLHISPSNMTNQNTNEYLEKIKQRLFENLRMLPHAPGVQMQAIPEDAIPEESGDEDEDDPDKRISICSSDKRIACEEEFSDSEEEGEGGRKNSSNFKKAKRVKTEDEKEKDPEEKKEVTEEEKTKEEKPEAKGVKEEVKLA

For the compound `Cc1nc2ccccn2c1-c1csc(Nc2cccc(C(=O)NO)c2)n1` [Example 1, N-Hydroxy-3-[4-(2-methyl-imidazo[1,2-a]pyridin-3-yl)-thiazol-2-ylamino] -benzamide], the melting point (as a rule, the temperature, or range, at which the solid turns liquid) was determined as 170.4 °C. Moreover, on HDAC 6 [1], the IC50 (in general, the concentration at which inhibition is half-maximal) amounted to 490 nM. Also, on HDAC 6 [2], the IC50 was found to be 318 nM. The IC50 on HDAC 1 [3] was 92.7 nM. Besides, the IC50 on HDAC 1 [4] is 1080 nM.
In turn, `O=C(NO)c1ccc(Nc2nc(-c3cnc4ccccn34)cs2)cc1` [Example 13, N-Hydroxy-4-(4-imidazo[1,2-a]pyridin-3-yl-thiazol-2-ylamino)-benzamide] had a melting point of 209.9 °C. The IC50 on HDAC 6 [1] was 17 nM. Further, at HDAC 6 [2], the IC50 worked out at 18.5 nM. Further, on HDAC 1 [3], the IC50 came out at 29 nM. In addition, at HDAC 1 [4], the IC50 is 85.5 nM.

(Values after patent publication US20090005374A1, “IMIDAZOPYRIDINYL THIAZOLYL HISTONE DEACETYLASE INHIBITORS” (priority 2007, published 2009).)
